≈ marks a conversion by molar mass, not a printed value. Calls of active or inactive are those of the source. The rule behind the calls is not given here.
How the values were obtained:
Assay type in all cases: functional, organism-based
[1] = tested on: Human immunodeficiency virus 1; assay: Antiviral activity against HIV1
[2] = tested on: Human alphaherpesvirus 1; assay: Antiviral activity against HSV1
[3] = tested on: Human alphaherpesvirus 2; assay: Antiviral activity against HSV2
[4] = tested on: Human betaherpesvirus 5; assay: Antiviral activity against HCMV

EC50 [2] [µg/mL]	Structure (SMILES)	Activity [1]	Activity [2]	Activity [3]	Activity [4]
–	Nc1ncnc2c1ncn2[C@@H]1C=C(CO)[C@@H](CO)O1	inactive	inactive	inactive	inactive
33 (≈ 130 µM)	Cc1cn([C@@H]2C=C(CO)[C@@H](CO)O2)c(=O)[nH]c1=O	inactive	–	inactive	inactive
–	NC1C=CN([C@@H]2C=C(CO)[C@@H](CO)O2)C(=O)N1 (some centres not stated)	inactive	inactive	inactive	inactive

— ChEMBL document CHEMBL1255212, “Synthesis and antiviral evaluation of α-D-2',3'-didehydro-2',3'-dideoxy-3'-C-hydroxymethyl nucleosides” (Bioorg Med Chem Lett, 2010)
